Structures are written as SMILES.

This experiment concerns HBV viral production from HepAD38 cells. Nature of the experiment: Activity of test compounds on viral production from HepAD38 cells (viral load by qPCR of HBV core sequence in supernatant). In kind it is cell-based. The note with it: Hepatitis B virus, 120 h, 5 days incubation, HBV DNA in supernatant by qPCR, top concentration 10 μM, read-out: Viral Load EC50 Activity range. The essentials:
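EC50 and CC50 come from four-parameter fits of supernatant viral load and CellTiter-Glo viability, respectively. Viral load was measured by core-region TaqMan qPCR against HBV DNA standards and compared with DMSO controls. Tet-free HepAD38 cells (50,000/well, 2% FBS) were exposed to compound, highest 10 μM, for 5 days at 37° C.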

For the molecule `C=CCN1[C@@H](C(=O)Nc2ccc(F)c(Cl)c2)C[C@@H](c2nccs2)NS1(=O)=O` [HBV-CSU-094-ISO-I, Cis-2-Allyl-N-(3-chloro-4-fluorophenyl)-5-(thiazol-2-yl)-1,2,6-thiadiazinane-3-carboxamide 1,1-dioxide], the EC50 was over 5000 nM.
Next, `O=C(Nc1ccc(F)c(Cl)c1)C1CC(c2cccs2)NS(=O)(=O)N1CCO` (stereo not drawn) [HBV-CSU-041, Cis-N-(3-Chloro-4-fluorophenyl)-2-(2-hydroxyethyl)-5-(thiophen-2-yl)-1,2,6-thiadiazinane-3-carboxamide 1,1-dioxide]: over 5000 nM; `[2H]C([2H])([2H])N1[C@H](C(=O)Nc2ccc(F)c(Cl)c2)C[C@H](c2ccc(-c3cn(C([2H])([2H])[2H])cn3)s2)NS1(=O)=O` (stereo in doubt) [HBV-CSU-374-ISO-I, Cis-N-(3-Chloro-4-fluorophenyl)-2-(methyl-d3)-5-(5-(1-(methyl-d3)-1H-imidazol-4-yl)thiophen-2-yl)-1,2,6-thiadiazinane-3-carboxamide 1,1-dioxide]: under 1000 nM.
The same measure for `CN1C(C(=O)Nc2ccc(F)c(Cl)c2)CC(c2ccc(Br)c(F)c2)NS1(=O)=O` (stereo not drawn) [HBV-CSU-283, Cis-5-(4-Bromo-3-fluorophenyl)-N-(3-chloro-4-fluorophenyl)-2-methyl-1,2,6-thiadiazinane-3-carboxamide 1,1-dioxide]: under 1000 nM; for `CN1[C@@H](C(=O)Nc2ccc(F)c(Cl)c2)C[C@@H](c2cc(Br)cs2)NS1(=O)=O` [HBV-CSU-146-ISO-II, 5-(4-Bromothiophen-2-yl)-N-(3-chloro-4-fluorophenyl)-2-methyl-1,2,6-thiadiazinane-3-carboxamide 1,1-dioxide]: over 5000 nM; for `CN1[C@H](C(=O)Nc2ccc(F)c(Cl)c2)C[C@H](c2ccc(F)s2)NS1(=O)=O` [HBV-CSU-029-ISO-I, Cis-N-(3-chloro-4-fluorophenyl)-5-(5-fluorothiophen-2-yl)-2-methyl-1,2,6-thiadiazinane-3-carboxamide 1,1-dioxide]: under 1000 nM.
`Cc1cnc([C@@H]2C[C@H](C(=O)Nc3ccc(F)c(Cl)c3)N(C)S(=O)(=O)N2)s1`: the EC50 is over 5000 nM.
Next, `CN1[C@H](C(=O)Nc2ccc(F)c(Cl)c2)C[C@H](c2ccc(F)c(F)c2)NS1(=O)=O` [HBV-CSU-230-ISO-I, Cis-N-(3-Chloro-4-fluorophenyl)-5-(3,4-difluorophenyl)-2-methyl-1,2,6-thiadiazinane-3-carboxamide 1,1-dioxide]: under 1000 nM.
Regarding `CN1C(C(=O)Nc2ccc(F)c(Cl)c2)CC(c2cccc(OC(F)(F)F)c2)NS1(=O)=O` (racemic) [HBV-CSU-262, Cis-N-(3-Chloro-4-fluorophenyl)-2-methyl-5-(3-(trifluoromethoxy)phenyl)-1,2,6-thiadiazinane-3-carboxamide 1,1-dioxide], the EC50 was under 1000 nM.
The same measure for `Cc1c(-c2csc([C@H]3C[C@@H](C(=O)Nc4ccc(F)c(Cl)c4)N(C)S(=O)(=O)N3)c2)cnn1C` [HBV-CSU-315-ISO-I, Cis-N-(3-chloro-4-fluorophenyl)-5-(4-(1,5-dimethyl-1H-pyrazol-4-yl)thiophen-2-yl)-2-methyl-1,2,6-thiadiazinane-3-carboxamide 1,1-dioxide]: under 1000 nM; for `CN1[C@H](C(=O)Nc2ccc(F)c(Cl)c2)C[C@H](c2cc(-c3ccc(C(F)(F)F)nc3)cs2)NS1(=O)=O` [HBV-CSU-166-ISO-I, Cis-N-(3-chloro-4-fluorophenyl)-2-methyl-5-(4-(6-(trifluoromethyl)pyridin-3-yl)thiophen-2-yl)-1,2,6-thiadiazinane-3-carboxamide 1,1-dioxide]: under 1000 nM; for `CCc1sc(C2CC(C(=O)Nc3ccc(F)c(Cl)c3)N(C)S(=O)(=O)N2)cc1-c1cnn(C)c1` (racemic) [HBV-CSU-305, Cis-N-(3-Chloro-4-fluorophenyl)-5-(5-ethyl-4-(1-methyl-1H-pyrazol-4-yl)thiophen-2-yl)-2-methyl-1,2,6-thiadiazinane-3-carboxamide 1,1-dioxide]: under 1000 nM.
The same measure for `Cc1nn(C)cc1-c1csc([C@@H]2C[C@H](C(=O)Nc3ccc(F)c(Cl)c3)N(C)S(=O)(=O)N2)c1` (relative stereo) [HBV-CSU-316-ISO-II, Cis-N-(3-chloro-4-fluorophenyl)-5-(4-(1,3-dimethyl-1H-pyrazol-4-yl)thiophen-2-yl)-2-methyl-1,2,6-thiadiazinane-3-carboxamide 1,1-dioxide]: under 1000 nM.
The same measure for `COC(C)(C)CCN1[C@@H](C(=O)Nc2ccc(F)c(Cl)c2)C[C@@H](c2nccs2)NS1(=O)=O` [HBV-CSU-083-ISO-I, Cis-N-(3-Chloro-4-fluorophenyl)-2-(3-methoxy-3-methylbutyl)-5-(thiazol-2-yl)-1,2,6-thiadiazinane-3-carboxamide 1,1-dioxide]: over 5000 nM.
For `CN1[C@@H](C(=O)Nc2ccc(F)c(Cl)c2)C[C@@H](c2cc(-c3cccs3)cs2)NS1(=O)=O` [HBV-CSU-170-ISO-II], the EC50 was under 1000 nM.
The same measure for `[2H]C1[C@]([2H])(C(=O)Nc2ccc(F)c(Cl)c2)N(C)S(=O)(=O)N[C@]1([2H])c1ncc(-c2cn(C([2H])([2H])[2H])cn2)s1` (stereo in doubt) [HBV-CSU-341-ISO-II, Cis-N-(3-Chloro-4-fluorophenyl)-2-methyl-5-(5-(1-(methyl-d3)-1H-imidazol-4-yl)thiazol-2-yl)-1,2,6-thiadiazinane-3,4,5-d3-3-carboxamide 1,1-dioxide]: 1000 to 5000 nM; for `CN1[C@H](C(=O)Nc2ccc(F)c(Br)c2)C[C@H](c2ccc(F)cc2)NS1(=O)=O` [HBV-CSU-211-ISO-I, Cis-N-(3-Bromo-4-fluorophenyl)-5-(4-fluorophenyl)-2-methyl-1,2,6-thiadiazinane-3-carboxamide 1,1-dioxide]: under 1000 nM.
Next, `CN1C(C(=O)Nc2ccc(F)c(Cl)c2)CC(c2nnc(-c3ccccc3)s2)NS1(=O)=O` (racemic) [HBV-CSU-120, Cis-N-(3-Chloro-4-fluorophenyl)-2-methyl-5-(5-phenyl-1,3,4-thiadiazol-2-yl)-1,2,6-thiadiazinane-3-carboxamide 1,1-dioxide]: under 1000 nM.
Next, `Cc1sc([C@H]2C[C@@H](C(=O)Nc3ccc(F)c(Cl)c3)N(C)S(=O)(=O)N2)cc1-c1cnn(C)c1` [HBV-CSU-304-ISO-I, Cis-N-(3-Chloro-4-fluorophenyl)-2-methyl-5-(5-methyl-4-(1-methyl-1H-pyrazol-4-yl)thiophen-2-yl)-1,2,6-thiadiazinane-3-carboxamide 1,1-dioxide]: under 1000 nM; `CN1[C@H](C(=O)Nc2ccc(F)c(Cl)c2)C[C@H](c2ncc(-c3cnn(C)c3)s2)NS1(=O)=O` [HBV-CSU-177-ISO-I, Cis-N-(3-Chloro-4-fluorophenyl)-2-methyl-5-(5-(1-methyl-1H-pyrazol-4-yl)thiazol-2-yl)-1,2,6-thiadiazinane-3-carboxamide 1,1-dioxide]: under 1000 nM; `[2H]C([2H])([2H])N1[C@@H](C(=O)Nc2ccc(F)c(Cl)c2)CC(c2ccc(-c3cn(C)cn3)s2)NS1(=O)=O` (stereo in doubt) [HBV-CSU-373-ISO-II, Cis-N-(3-Chloro-4-fluorophenyl)-2-(methyl-d3)-5-(5-(1-methyl-1H-imidazol-4-yl)thiophen-2-yl)-1,2,6-thiadiazinane-3-carboxamide 1,1-dioxide]: under 1000 nM.
